Results as given in patent US20030166598A1, “Medicines for treating tumoral pathologies containing the ro5-4864 compound and an apoptosis-inducing agent” (priority 2000, published 2003).

Assays:
143N2 (osteosarcoma) = experiment: Cell viability (methylene blue test) with CH11 anti-FasR antibody, 143N2 line; type: cell-based, human
Description: (§1) The human lines Jurkat (lymphoid T), SHEP (neuroblastoma) transfected with a control vector or with a bcl-2 or bcl-XL vector, 143N2 (osteosarcoma) and SNB79 (glioblastoma) were cultured in DMEM or RPMI 1640 (Sigma Chemical Co., St Louis, Mo.) supplemented with FCS 10% (Dutscher, Brumath, France), penicillin G (10^2 IU/mI)+streptomycin (50 μg/ml) (Sigma) and L-glutamine ([…], Sigma).
(§2) The cells were cultured in the presence of anti-Fas receptor antibody CH11 (1 μg/ml; Immunotech, Marseilles, France) concomitantly or after exposure to RO5-4864 (BioBlock Scientific, Illkirch, France), diazepam (Roche, Neuilly sur Seine, France), or PK11195 (BioBlock), at various concentrations.
(§3) Cell viability was measured by testing with methylene blue (Dimanche-Boitrel et al., 1992).
3. FIG. 3: culture of the 143N2 line in the presence of CH11 with (black histograms) or without (grey histograms) RO5-4864, PK11195 or diazepam. Evaluation of cell viability (test with methylene blue; percentage of cells on ordinate), as a function of the concentration of RO5-4864 (100 μM or RO 100, 200 μM or RO 200), PK11195 (50 μM or PK50, 80 μM or PK 80) and DIAZEPAM (50 μM or DIA50, 80 μM or DIA80).

SNB79 (glioblastoma) = experiment: Cell viability (methylene blue test) with CH11 anti-FasR antibody, SNB79 line; type: cell-based, human
Description: as §1, §2, §3
4. FIG. 4: culture of the SNB79 line in the presence of CH11 with (•) or without (o) RO5-4864. Evaluation of cell viability (test with methylene blue; percentage of cells on the ordinate), as a function of the concentration (μM) of Ro5-4864.

SHEP-bcl-2 = experiment: Cell viability (methylene blue test) with CH11 anti-FasR antibody, SHEP-bcl-2 line; type: cell-based, human
Description: as §1, §2, §3
(§4) 2. FIG. 2: culture of the SHEP control lines (SHEP.control), of SHEP lines transfected with bcl2 (SHEP.Bcl2), and of SHEP lines transfected with bclXL (SHEP.BClXL), in the presence of CH11 with (black histograms) or without (grey histograms) RO5-4864. Evaluation of cell viability (test with methylene blue; percentage of cells on ordinate), as a function of the concentration of RO5-4864 (0, 100 μM or RO100, 200 μM or RO 200).

[1] = tested on: SHEP-control (neuroblastoma transfected with a control vector); experiment: Cell viability (methylene blue test) with CH11 anti-FasR antibody, SHEP-control line; type: cell-based, human
Description: as §1, §2, §3, §4

SHEP bcl-XL = experiment: Cell viability (methylene blue test) with CH11 anti-FasR antibody, SHEP bcl-XL line; type: cell-based, human
Description: as §1, §2, §3, §4

Jurkat (lymphoid T) = experiment: Quantification of apoptosis in Jurkat cells cultured with anti-Fas receptor antibody CH11 and PBR ligands; type: cell-based, human; conditions: for potentiation of the apoptotic effect of the CH11 anti-FasR antibody: FIGS. 1A and 1B; for proportion of subdiploid (apoptotic) cells: ligand at 60 μM in combination with CH11 anti-FasR antibody
Description: as §1, §2
Lipophilic fluorochrome DiOC6(3) (Molecular Probes, Eugene, Oreg.) was used for measuring the membrane potential of the mitochondria (Δψm). Briefly, the cells were incubated for 15 min at 37° C. in the presence of 40 nM of DiOC6(3), with immediate analysis of the incorporation of fluorescence on a type Epics Profile II cytofluorometer (Coulter, Miami, Fla.). Hydroethydine (HE) (2 μM, 15 min at 37° C., Molecular Probes) was used for measuring the production of superoxide anion (Marchetti et al., 1996). Finally, the proportion of cells that had lost part of the chromosomal DNA (subdiploid cells) was determined with propidium iodide on cells fixed in ethanol (Nicoletti et al., 1991).
1. FIG. 1: culture of Jurkat cells in the presence of CH11 with (white histograms) or without (black histograms) RO5-4864, PK11195 or diazepam.

[2] = tested on: SCLC61 small-cell bronchial carcinoma; experiment: SCLC61 human tumour xenotransplanted in nude mice, tumour growth; type: in vivo, mouse
[3] = tested on: SCLC6 small-cell bronchial carcinoma; experiment: SCLC6 human tumour xenotransplanted in nude mice, tumour growth; type: in vivo, mouse; conditions: etoposide 12 mg/kg/day + ifosfamide 90 mg/kg/day D1 to D3 + RO5-4864 40 mg/kg/day D1 to D3, p<0.05

## CCC(C)N(C)C(=O)c1cc2ccccc2c(-c2ccccc2Cl)n1 (stereo not drawn) [PK11195]
143N2 (osteosarcoma)
  reversal of resistance to the CH11 anti-FasR antibody: only observed with diazepam and PK11195 on the line SHEP-control
SNB79 (glioblastoma)
  reversal of resistance to the CH11 anti-FasR antibody: only observed with diazepam and PK11195 on the line SHEP-control
SHEP-bcl-2
  reversal of resistance to the CH11 anti-FasR antibody: only observed with diazepam and PK11195 on the line SHEP-control
[1]
  reversal of resistance to the CH11 anti-FasR antibody: observed
SHEP bcl-XL
  reversal of resistance to the CH11 anti-FasR antibody: only observed with diazepam and PK11195 on the line SHEP-control
Jurkat (lymphoid T)
  potentiation of the apoptotic effect of the CH11 anti-FasR antibody: potentiate the apoptotic effect
  proportion of subdiploid (apoptotic) cells: 25%

## CN1C(=O)CN=C(c2ccc(Cl)cc2)c2cc(Cl)ccc21 [RO5-4864, 4′-chlorodiazepam]
143N2 (osteosarcoma)
  reversal of resistance to the CH11 anti-FasR antibody: reverses the resistance
SNB79 (glioblastoma)
  reversal of resistance to the CH11 anti-FasR antibody: reverses the resistance
[2]; RO5-4864 alone, 12 mg/kg/day s.c. D1 to D3
  tumour growth: not altered
[2]; etoposide 12 mg/kg/day i.p. D1 to D3 + RO5-4864 12 mg/kg/day s.c. D1 to D3, p<0.005
  antitumour effect of etoposide with concomitant RO5-4864: increased
SHEP-bcl-2
  reversal of resistance to the CH11 anti-FasR antibody: reverses the resistance
[3]
  antitumour effect of the chemotherapy with RO5-4864: increased
[1]
  reversal of resistance to the CH11 anti-FasR antibody: reverses the resistance
SHEP bcl-XL
  reversal of resistance to the CH11 anti-FasR antibody: reverses the resistance
Jurkat (lymphoid T)
  potentiation of the apoptotic effect of the CH11 anti-FasR antibody: potentiate the apoptotic effect
  proportion of subdiploid (apoptotic) cells: 73%

## CN1C(=O)CN=C(c2ccccc2)c2cc(Cl)ccc21 [diazepam]
143N2 (osteosarcoma)
  reversal of resistance to the CH11 anti-FasR antibody: only observed with diazepam and PK11195 on the line SHEP-control
SNB79 (glioblastoma)
  reversal of resistance to the CH11 anti-FasR antibody: only observed with diazepam and PK11195 on the line SHEP-control
SHEP-bcl-2
  reversal of resistance to the CH11 anti-FasR antibody: only observed with diazepam and PK11195 on the line SHEP-control
[1]
  reversal of resistance to the CH11 anti-FasR antibody: observed
SHEP bcl-XL
  reversal of resistance to the CH11 anti-FasR antibody: only observed with diazepam and PK11195 on the line SHEP-control
Jurkat (lymphoid T)
  potentiation of the apoptotic effect of the CH11 anti-FasR antibody: potentiate the apoptotic effect
  proportion of subdiploid (apoptotic) cells: 20%
